{
  "source": "patent US9695155B2",
  "about": "“Herbicidal substituted pyrimidinyloxy benzene compounds” (E. I. DU PONT DE NEMOURS AND COMPANY, priority 2013, dated 2017)",
  "experiment_in_all_cases": "Test F preemergence",
  "conditions_in_all_cases": "21 days, scale 0 to 100",
  "key": {"[1]": {"test_system": "pigweed", "format": "in vivo, Amaranthus retroflexus", "description": "(§1) Seeds of plant species selected from bermudagrass (Cynodon dactylon), surinam grass (Brachiaria decumbens), large (Lg) crabgrass (Digitaria sanguinalis), crabgrass, naked (naked crabgrass, Digitaria nuda), foxtail, green (green foxtail, Setaria viridis), johnsongrass (Sorghum halepense), kochia (Kochia scoparia), morningglory (pitted morningglory, Ipomoea lacunosa), nutsedge, purple (purple nutsedge, Cyperus rotundus), ragweed (common ragweed, Ambrosia elatior), mustard, black (black mustard, Brassica nigra), guineagrass (Panicum maximum), dallisgrass (Paspalum dilatatum), barnyardgrass (Echinochloa crus-galli), sandbur (southern sandbur, Cenchrus echinatus), sowthistle (common sowthistle, Sonchus oleraceous), Italian ryegrass (Lolium multiflorum), signalgrass (broadleaf signalgrass, Brachiaria platyphylla), dayflower (Virginia (VA) dayflower, Commelina virginica), bluegrass (annual bluegrass, Poa annua), quackgrass (Elytrigia repens), mallow (common mallow, Malva sylvestris), buckwheat, wild (wild buckwheat, Polygonum convolvulus), leafy spurge (Euphorbia esula), chickweed (common chickweed, Stellaria media), wild poinsettia (Euphorbia heterophylla), and pigweed (Amaranthus retroflexus) were planted into a blend of loam soil and sand and treated preemergence with test chemicals formulated in a non-phytotoxic solvent mixture which included a surfactant.\n(§2) Treated plants and controls were maintained in a greenhouse for 21 days, after which time all species were compared to controls and visually evaluated. Plant response ratings, summarized in Table F, are based on a scale of 0 to 100 where 0 is no effect and 100 is complete control. A dash (-) response means no test result."}, "[2]": {"test_system": "mallow", "format": "in vivo, Malva sylvestris", "description": "as §1, §2"}, "[3]": {"test_system": "wild poinsettia", "format": "in vivo, Euphorbia heterophylla", "description": "as §1, §2"}, "[4]": {"test_system": "signalgrass", "format": "in vivo, Brachiaria platyphylla", "description": "as §1, §2"}, "[5]": {"test_system": "sowthistle", "format": "in vivo, Sonchus oleraceous", "description": "as §1, §2"}, "[6]": {"test_system": "mustard, black", "format": "in vivo, Brassica nigra", "description": "as §1, §2"}, "[7]": {"test_system": "johnsongrass", "format": "in vivo, Sorghum halepense", "description": "as §1, §2"}, "[8]": {"test_system": "foxtail, green", "format": "in vivo, Setaria viridis", "description": "as §1, §2"}},
  "data": [
    {"molecule": "N#Cc1cccc(Oc2ncc(F)cn2)c1-n1cc(C(F)(F)F)cn1", "note": "[Compound 79, 3-[(5-fluoro-2-pyrimidinyl)oxy]-2-[4-(trifluoromethyl)-1H-pyrazol-1-yl]benzonitrile]", "values": [
      {"measurement": "Plant response rating, Pigweed", "setting": "[1]; 16 g ai/ha", "value": 100},
      {"measurement": "Plant response rating, Pigweed", "setting": "[1]; 31 g ai/ha", "value": 100},
      {"measurement": "Plant response rating, Pigweed", "setting": "[1]; 62 g ai/ha", "value": 100},
      {"measurement": "Plant response rating, Pigweed", "setting": "[1]; 125 g ai/ha", "value": 100},
      {"measurement": "Plant response rating, Pigweed", "setting": "[1]; 250 g ai/ha", "value": 100},
      {"measurement": "Plant response rating, Mallow", "setting": "[2]; 16 g ai/ha", "value": 98},
      {"measurement": "Plant response rating, Mallow", "setting": "[2]; 31 g ai/ha", "value": 100},
      {"measurement": "Plant response rating, Mallow", "setting": "[2]; 62 g ai/ha", "value": 100},
      {"measurement": "Plant response rating, Mallow", "setting": "[2]; 125 g ai/ha", "value": 100},
      {"measurement": "Plant response rating, Mallow", "setting": "[2]; 250 g ai/ha", "value": 100},
      {"measurement": "Plant response rating, Poinsettia, Wild", "setting": "[3]; 16 g ai/ha", "value": 50},
      {"measurement": "Plant response rating, Poinsettia, Wild", "setting": "[3]; 31 g ai/ha", "value": 85},
      {"measurement": "Plant response rating, Poinsettia, Wild", "setting": "[3]; 62 g ai/ha", "value": 98},
      {"measurement": "Plant response rating, Poinsettia, Wild", "setting": "[3]; 125 g ai/ha", "value": 100},
      {"measurement": "Plant response rating, Poinsettia, Wild", "setting": "[3]; 250 g ai/ha", "value": 100},
      {"measurement": "Plant response rating, Signalgrass", "setting": "[4]; 16 g ai/ha", "value": 98},
      {"measurement": "Plant response rating, Signalgrass", "setting": "[4]; 31 g ai/ha", "value": 100},
      {"measurement": "Plant response rating, Signalgrass", "setting": "[4]; 62 g ai/ha", "value": 100},
      {"measurement": "Plant response rating, Signalgrass", "setting": "[4]; 125 g ai/ha", "value": 100},
      {"measurement": "Plant response rating, Signalgrass", "setting": "[4]; 250 g ai/ha", "value": 100},
      {"measurement": "Plant response rating, Sowthistle", "setting": "[5]; 16 g ai/ha", "value": 100},
      {"measurement": "Plant response rating, Sowthistle", "setting": "[5]; 31 g ai/ha", "value": 100},
      {"measurement": "Plant response rating, Sowthistle", "setting": "[5]; 62 g ai/ha", "value": 100},
      {"measurement": "Plant response rating, Sowthistle", "setting": "[5]; 125 g ai/ha", "value": 100},
      {"measurement": "Plant response rating, Sowthistle", "setting": "[5]; 250 g ai/ha", "value": 100},
      {"measurement": "Plant response rating, Mustard, Black", "setting": "[6]; 16 g ai/ha", "value": 100},
      {"measurement": "Plant response rating, Mustard, Black", "setting": "[6]; 31 g ai/ha", "value": 100},
      {"measurement": "Plant response rating, Mustard, Black", "setting": "[6]; 62 g ai/ha", "value": 100},
      {"measurement": "Plant response rating, Mustard, Black", "setting": "[6]; 125 g ai/ha", "value": 100},
      {"measurement": "Plant response rating, Mustard, Black", "setting": "[6]; 250 g ai/ha", "value": 100},
      {"measurement": "Plant response rating, Johnsongrass", "setting": "[7]; 16 g ai/ha", "value": 65},
      {"measurement": "Plant response rating, Johnsongrass", "setting": "[7]; 31 g ai/ha", "value": 100},
      {"measurement": "Plant response rating, Johnsongrass", "setting": "[7]; 62 g ai/ha", "value": 100},
      {"measurement": "Plant response rating, Johnsongrass", "setting": "[7]; 125 g ai/ha", "value": 100},
      {"measurement": "Plant response rating, Johnsongrass", "setting": "[7]; 250 g ai/ha", "value": 100},
      {"measurement": "Plant response rating, Foxtail, Green", "setting": "[8]; 16 g ai/ha", "value": 95},
      {"measurement": "Plant response rating, Foxtail, Green", "setting": "[8]; 31 g ai/ha", "value": 100},
      {"measurement": "Plant response rating, Foxtail, Green", "setting": "[8]; 62 g ai/ha", "value": 100},
      {"measurement": "Plant response rating, Foxtail, Green", "setting": "[8]; 125 g ai/ha", "value": 100},
      {"measurement": "Plant response rating, Foxtail, Green", "setting": "[8]; 250 g ai/ha", "value": 100}
    ]},
    {"molecule": "N#Cc1cccc(Oc2ncc(Cl)cn2)c1-n1cc(OC(F)F)cn1", "note": "[Compound 97]", "values": [
      {"measurement": "Plant response rating, Pigweed", "setting": "[1]; 16 g ai/ha", "value": 100},
      {"measurement": "Plant response rating, Pigweed", "setting": "[1]; 31 g ai/ha", "value": 100},
      {"measurement": "Plant response rating, Pigweed", "setting": "[1]; 62 g ai/ha", "value": 100},
      {"measurement": "Plant response rating, Pigweed", "setting": "[1]; 125 g ai/ha", "value": 100},
      {"measurement": "Plant response rating, Pigweed", "setting": "[1]; 250 g ai/ha", "value": 100},
      {"measurement": "Plant response rating, Mallow", "setting": "[2]; 16 g ai/ha", "value": 30},
      {"measurement": "Plant response rating, Mallow", "setting": "[2]; 31 g ai/ha", "value": 75},
      {"measurement": "Plant response rating, Mallow", "setting": "[2]; 62 g ai/ha", "value": 98},
      {"measurement": "Plant response rating, Mallow", "setting": "[2]; 125 g ai/ha", "value": 100},
      {"measurement": "Plant response rating, Mallow", "setting": "[2]; 250 g ai/ha", "value": 100},
      {"measurement": "Plant response rating, Poinsettia, Wild", "setting": "[3]; 16 g ai/ha", "value": 10},
      {"measurement": "Plant response rating, Poinsettia, Wild", "setting": "[3]; 31 g ai/ha", "value": 20},
      {"measurement": "Plant response rating, Poinsettia, Wild", "setting": "[3]; 62 g ai/ha", "value": 75},
      {"measurement": "Plant response rating, Poinsettia, Wild", "setting": "[3]; 125 g ai/ha", "value": 98},
      {"measurement": "Plant response rating, Poinsettia, Wild", "setting": "[3]; 250 g ai/ha", "value": 98},
      {"measurement": "Plant response rating, Signalgrass", "setting": "[4]; 16 g ai/ha", "value": 25},
      {"measurement": "Plant response rating, Signalgrass", "setting": "[4]; 31 g ai/ha", "value": 90},
      {"measurement": "Plant response rating, Signalgrass", "setting": "[4]; 62 g ai/ha", "value": 85},
      {"measurement": "Plant response rating, Signalgrass", "setting": "[4]; 125 g ai/ha", "value": 100},
      {"measurement": "Plant response rating, Signalgrass", "setting": "[4]; 250 g ai/ha", "value": 100},
      {"measurement": "Plant response rating, Sowthistle", "setting": "[5]; 16 g ai/ha", "value": 100},
      {"measurement": "Plant response rating, Sowthistle", "setting": "[5]; 31 g ai/ha", "value": 100},
      {"measurement": "Plant response rating, Sowthistle", "setting": "[5]; 62 g ai/ha", "value": 100},
      {"measurement": "Plant response rating, Sowthistle", "setting": "[5]; 125 g ai/ha", "value": 100},
      {"measurement": "Plant response rating, Sowthistle", "setting": "[5]; 250 g ai/ha", "value": 100},
      {"measurement": "Plant response rating, Mustard, Black", "setting": "[6]; 16 g ai/ha", "value": 90},
      {"measurement": "Plant response rating, Mustard, Black", "setting": "[6]; 31 g ai/ha", "value": 100},
      {"measurement": "Plant response rating, Mustard, Black", "setting": "[6]; 62 g ai/ha", "value": 100},
      {"measurement": "Plant response rating, Mustard, Black", "setting": "[6]; 125 g ai/ha", "value": 100},
      {"measurement": "Plant response rating, Mustard, Black", "setting": "[6]; 250 g ai/ha", "value": 100},
      {"measurement": "Plant response rating, Johnsongrass", "setting": "[7]; 16 g ai/ha", "value": 0},
      {"measurement": "Plant response rating, Johnsongrass", "setting": "[7]; 31 g ai/ha", "value": 65},
      {"measurement": "Plant response rating, Johnsongrass", "setting": "[7]; 62 g ai/ha", "value": 95},
      {"measurement": "Plant response rating, Johnsongrass", "setting": "[7]; 125 g ai/ha", "value": 100},
      {"measurement": "Plant response rating, Johnsongrass", "setting": "[7]; 250 g ai/ha", "value": 100},
      {"measurement": "Plant response rating, Foxtail, Green", "setting": "[8]; 16 g ai/ha", "value": 75},
      {"measurement": "Plant response rating, Foxtail, Green", "setting": "[8]; 31 g ai/ha", "value": 100},
      {"measurement": "Plant response rating, Foxtail, Green", "setting": "[8]; 62 g ai/ha", "value": 100},
      {"measurement": "Plant response rating, Foxtail, Green", "setting": "[8]; 125 g ai/ha", "value": 100},
      {"measurement": "Plant response rating, Foxtail, Green", "setting": "[8]; 250 g ai/ha", "value": 100}
    ]}
  ]
}
